Source: US7618816B2, “Metal-binding therapeutic peptides” (Ontherix, Inc., priority 2005, dated 2009)
Several values for one entry are separate records, joined by “and”; a condition that tells them apart may be missing. Identical values can stand only once. Where a SMILES comes first, the peptide text is derived from it. Where no end group is shown, it is not given here. The star is where a group is joined. Biotin = O=C1N[C@H]2[C@H](CS[C@H]2CCCCC(=O)*)N1

Key:
Test in all cases: Cytotoxicity of MBD therapeutic peptides
Details in all cases: relative to equal dose of control MBD peptide, only p < 0.05 shown, 1-4 experiments
CCRF-CEM = type: cell-based, human
Excerpt: (§1) Also, peptides such as NFKB and CSK are of interest, targeting stress-coping mechanisms such as inflammation. The breast cancer lines tested are HS578T, MX-1, MDA-MB231, MDA-MB435 and MCF7. Leukemia cell lines tested for cytotoxicity effects with these MBD-tagged peptides are CCRF-CEM, RPMI-8226 and MOLT-4. Overall, MCF-7 and CCRF-CEM yield the most consistent data and the strongest effect across the board (Table 12). In addition, elevated levels of cytotoxicity are observed when multiple peptides are combined while keeping the overall amount of peptide added constant. Cytotoxicity increases with the number of peptides added per cocktail and is further enhanced by combining peptide cocktail treatment with paclitaxel.

MCF-7 = type: cell-based, human
Excerpt: as §1

MOLT-4 = type: cell-based, human
Excerpt: as §1

Hs578T = type: cell-based
Excerpt: as §1

MDA-MB231 = type: cell-based, human
Excerpt: as §1

MX-I = type: cell-based, human
Excerpt: as §1

SR = type: cell-based
MDA-MB435 = type: cell-based
Excerpt: as §1

RPMI-8826 = type: cell-based, human
Excerpt: as §1

Row | Molecule | % viability @ 48 hr/25 ug/ml peptide, CCRF-CEM (CCRF-CEM) | % viability @ 48 hr/25 ug/ml peptide, MCF-7 (MCF-7) | % viability @ 48 hr/25 ug/ml peptide, MOLT-4 (MOLT-4) | % viability @ 48 hr/25 ug/ml peptide, Hs578T (Hs578T) | % viability @ 48 hr/25 ug/ml peptide, MDA-MB231 (MDA-MB231) [%] | % viability @ 48 hr/25 ug/ml peptide, MX-I (MX-I) [%] | % viability @ 48 hr/25 ug/ml peptide, SR (SR) | % viability @ 48 hr/25 ug/ml peptide, MDA-MB435 (MDA-MB435) | % viability @ 48 hr/25 ug/ml peptide, RPMI-8826 (RPMI-8826) [%]
1 | CC(C)[C@H](NC(=O)[C@H](C)NC(=O)[C@H](Cc1c[nH]c2ccccc12)NC(=O)[C@H](CS)NC(=O)[C@H](Cc1ccccc1)NC(=O)CNC(=O)[C@H](CCCNC(=N)N)NC(=O)[C@H](CCCCN)NC(=O)[C@H](CCCNC(=N)N)NC(=O)CNC(=O)[C@H](CCCCN)NC(=O)[C@H](CO)NC(=O)[C@@H]1CCCN1C(=O)[C@H](CCCNC(=N)N)NC(=O)[C@H](CS)NC(=O)[C@H](CCC(N)=O)NC(=O)[C@H](CCCCN)NC(=O)[C@H](CCCCN)NC(=O)[C@H](CCCCN)NC(=O)[C@H](Cc1ccc(O)cc1)NC(=O)[C@H](Cc1ccccc1)NC(=O)CNC(=O)[C@H](CCCCN)NC(=O)[C@H](CCCCN)NC(=O)CCCC[C@@H]1SC[C@@H]2NC(=O)N[C@@H]21)C(=O)N[C@@H](C)C(=O)N[C@@H](CCC(=O)O)C(=O)N[C@@H](Cc1ccc(O)cc1)C(=O)N[C@@H](C)C(=O)N[C@@H](CCCNC(=N)N)C(=O)N[C@H](C(=O)N[C@@H](CCC(N)=O)C(=O)N[C@@H](CCCCN)C(=O)N[C@@H](CCCNC(=N)N)C(=O)N[C@@H](CCCCN)C(=O)O)C(C)C [CSK] (Biotin-KKGFYKKKQCRPSKGRKRGFCWAVAEYARVQKRK-OH) | 75.1 ± 4.5% and 85.5 ± 2.3% | 21.1 ± 4.1% and 41.3 ± 5.8% | 81.0 ± 7.1% and 54.8 ± 9.7% | 50.2 ± 1.6% and 76.3 ± 0.6% | – | – | – | – | –
2 | CC(C)C[C@H](NC(=O)[C@H](C)NC(=O)[C@H](C)NC(=O)[C@H](Cc1c[nH]c2ccccc12)NC(=O)[C@H](CS)NC(=O)[C@H](Cc1ccccc1)NC(=O)CNC(=O)[C@H](CCCNC(=N)N)NC(=O)[C@H](CCCCN)NC(=O)[C@H](CCCNC(=N)N)NC(=O)CNC(=O)[C@H](CCCCN)NC(=O)[C@H](CO)NC(=O)[C@@H]1CCCN1C(=O)[C@H](CCCNC(=N)N)NC(=O)[C@H](CS)NC(=O)[C@H](CCC(N)=O)NC(=O)[C@H](CCCCN)NC(=O)[C@H](CCCCN)NC(=O)[C@H](CCCCN)NC(=O)[C@H](Cc1ccc(O)cc1)NC(=O)[C@H](Cc1ccccc1)NC(=O)CNC(=O)[C@H](CCCCN)NC(=O)[C@H](CCCCN)NC(=O)CCCC[C@@H]1SC[C@@H]2NC(=O)N[C@@H]21)C(=O)N[C@@H](CC(=O)O)C(=O)N[C@@H](Cc1c[nH]c2ccccc12)C(=O)N[C@@H](CO)C(=O)N[C@@H](Cc1c[nH]c2ccccc12)C(=O)N[C@@H](CC(C)C)C(=O)N[C@@H](CCC(N)=O)C(=O)N[C@H](C(=O)O)[C@@H](C)O [NEMO] (Biotin-KKGFYKKKQCRPSKGRKRGFCWAALDWSWLQT-OH) | – | 77.0 ± 46.7% | – | 81.3 ± 3.0% | 79.0 ± 0.8 | 59.1 ± 3.2 | 56.9 ± 6.2% | 67.4 ± 21.1% and 90.2 ± 3.6% | –
3 | Biotin-KKGFYKKKQCRPSKGRKRGFCWAVQTLLQQMQDKFQTMSDQI (cysteines drawn unpaired) [M9HSBP2] | 92.6 ± 2.0% | – | 94.2 ± 17.1% | – | – | – | 88.9 ± 4.0% and 87.7 ± 6.7% | – | 81.7 ± 2.9
